Results: patent publication US20070105937A1, “Indole-3-propionamide and derivatives thereof” (priority 2003, published 2007)

Key:
[1] = tested on: rotifers (Philodina); assay: Synergistic effects on longevity of rotifers with ascorbate and trolox; assay type: in vivo; design: Maximum Life Span: unit not given here
Method: Ascorbate and trolox were administered at a concentration of 100 micromolar, the indoles were given at a concentration of 5 micromolar.

[2] = target: T1, Aβ1-40 (Homo sapiens, UniProt P05067); assay: Thioflavin T fluorescence, inhibition of Aβ aggregation; assay type: biochemical; conditions: Aβ 250 μM, compound:Aβ molar ratio 1:1; FIG. 1
T1 construct: thioflavin T fluorescence experiments performed with Aβ1-40
T1 sequence (P05067 672-711): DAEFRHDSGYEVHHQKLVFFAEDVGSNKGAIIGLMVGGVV
Method: FIG. 1 illustrates the results of thioflavin T fluorescence experiments performed with Aβ1-40 showing the effects of IPAM as compared with melatonin and IPA.
The ThT was performed as previously described. Briefly, 5 μl were obtained from each sample after incubation and added to 2 ml of a glycine-NaOH buffer (50 mM), pH 9.2, containing 2 μM thioflavin T. Fluorescence intensities were measured at excitation 435 nm and emission 485 nm in a Hitachi F-2000 fluorescence spectrophotometer. A time scan of fluorescence intensity was performed and three measurements were obtained after the decay reached a plateau at 200, 220, and 240 seconds. These measurements were averaged after subtracting the background fluorescence of 2.0 μM thioflavin T in the blank buffers. […] All measurements were done in triplicate. Aqueous stock solutions of 1 mM of each compound were made by first preparing a 10 mM suspension in 1 N HCl and then by completely dissolving them in 100 mM phosphate buffered saline at pH 7.4 (1:10, v:v) and re-adjusting the pH to 7.4 with 1 N NaOH. Solutions of Aβ were prepared by dissolving 2.2 mg of the peptide in 1 ml of 50 mM bicarbonate buffer at pH 9.6. 50 μl aliquots of this solution were lyophilized and stored at −80° C. until needed. Working stock solutions of the peptide (500 μM concentration) were prepared in HPLC-grade water immediately prior to the experiments. In the experimental samples, Aβ was further diluted 1:1 with phosphate buffered saline (pH 7.4, 100 mM) to which each of the compounds or equivalent volumes of buffer solution were added. The final concentration of Aβ in each sample was 250 μM and the compound:Aβ molar ratios were 1:1.

[3] = Time dependent indole levels in brain tissue after i.p. administration; assay type: in vivo, Sprague-Dawley rats; conditions: mean+SD, N=4
Method: Time dependent changes in indole levels in brain tissue (pg/mg protein) after administration of 0.5 mg/kg i.p. of drug in phosphate buffered saline to one month old male Sprague-Dawley rats (N=4 animals, mean+SD). Endogenous levels of melatonin in saline treated control animals were 25+10 pg/mg protein, endogenous levels of indolepropionate were 80+20 pg/mg protein. Significant amounts of endogenous IPAM in rat brain could not be detected. Brain tissue was homogenized 1:10 in phosphate buffer and extracted 1:1 with ethylacetate. Recovery for melatonin, indolepropionate and IPAM were 57+6, 69+12 and 80+4%. Indoles were measured by HPLC with electrochemical detection (20% methanol eluent, 990 mV oxidation potential, IPAM elutes at 18 minutes, melatonin at 21 minutes, indolepropionate at 36 minutes).

[4] = tested on: Hydroxyl Radical Mediated Oxidative Damage to DNA; assay: Inhibition of hydroxyl radical mediated oxidative damage to DNA in rat forebrain homogenate (8-hydroxydeoxyguanosine formation); assay type: biochemical; conditions: 60 min with 3 mM hydrogen peroxide, 4 mM ferrous sulfate, 2 mM ADP; mean+SD, N=6; read-out: IC 50 (concentration to reduce oxidative DNA damage by 50%)
Method: Rat forebrain homogenate was incubated for sixty minutes with 3 mM hydrogen peroxide, 4 mM ferrous sulfate and 2 mM ADP to generate hydroxyl radicals. The concentrations of each indole compound to reduce oxidative DNA damage by 50%, the IC 50 values, are given as means+standard deviations for N=6 different determinations. The IC 50 values were calculated by running six experiments each at 10 increasing concentrations ranging from 0.01 to 100 micromolar of melatonin, indole-3-propionic acid and indole-3-propionamide. DNA damage was examined by measuring the formation of 8-hydroxydeoxyguanosine with HPLC and electrochemical detection in the presence and absence of the hydroxyl radical scavengers.

[5] = tested on: rotifers (Philodina); assay: Inhibition of the aging process in a rotifer model (life span); assay type: in vivo
Description: Free-radicals are involved in the aging process and since IPAM is a powerful cytoprotective agent, we tested IPAM for its property to inhibit the aging process. […] (*=p<0.05, statistically significant difference to control).

[6] = in vivo; cited from earlier work
[7] = series against Control (0.1% DMSO), ascorbate, trolox 100 micromolar
[8] = 30 minutes after 0.5 mg/kg i.p. in phosphate buffered saline
[9] = 60 minutes after 0.5 mg/kg i.p. in phosphate buffered saline
[10] = 120 minutes after 0.5 mg/kg i.p. in phosphate buffered saline

## O=C1O[C@H]([C@@H](O)CO)C(O)=C1O [Ascorbate]
[1]; control = 0.1% DMSO
  Increase in % of control (Medium Life Span): −1%
  Increase in % of control (maximum life span): −7%
[1]; series against Ascorbate in 0.1% DMSO, ascorbate 100 micromolar, indoles 5 micromolar
  Maximum Life Span: 30
[1]; [7]
  Maximum Life Span: 28

## NC(=O)CCc1c[nH]c2ccccc12 [IPAM, indole-3-propionamide]
[2]
  inhibition of Aβ aggregation: potent inhibitor of Aβ aggregation
[3]; [8]
  indole levels in brain tissue: 480 + 46 pg/mg protein
[3]; [9]
  indole levels in brain tissue: 520 + 50 pg/mg protein
[3]; [10]
  indole levels in brain tissue: 570 + 69 pg/mg protein
[4]
  IC50: 180 nM
[5]; 0.5 μM
  Increase in % of control (maximum life span): +55%
  Increase in % of control (median life span): +31%
[5]; 0.5 μM, control 27
  Maximum life span in days (90% survival): 42 days
[5]; 5 μM
  Increase in % of control (maximum life span): +50%
  Increase in % of control (median life span): +40%
[5]; 5 μM, control 30
  Maximum life span in days (90% survival): 45 days
[5]; 50 μM
  Increase in % of control (maximum life span): +13%
  Increase in % of control (median life span): +15%
[5]; 50 μM, control 30
  Maximum life span in days (90% survival): 34 days
[5]; in vivo
  toxicity in rotifers: devoid of toxicity

## Cc1c(C)c2c(c(C)c1O)CCC(C)(C(=O)O)O2 (stereo not drawn) [Trolox]
[1]; control = 0.1% DMSO
  Increase in % of control (Medium Life Span): +8%
[1]; [7]
  Maximum Life Span: 30
[1]; series against Trolox in 0.1% DMSO, trolox 100 micromolar, indoles 5 micromolar
  Maximum Life Span: 34

## O=C(O)CCc1c[nH]c2ccccc12 [IPA, indole-3-propionic acid]
[2]
  inhibition of Aβ aggregation: potent inhibitor of Aβ aggregation
[6]
  half-life: 4.5 h
[3]; [8]
  indole levels in brain tissue: 160 + 11 pg/mg protein
[3]; [9]
  indole levels in brain tissue: 210 + 18 pg/mg protein
[3]; [10]
  indole levels in brain tissue: 230 + 25 pg/mg protein
[4]
  IC50: 7460 nM
[5]; 0.5 μM
  Increase in % of control (maximum life span): +37%
  Increase in % of control (median life span): +28%
[5]; 0.5 μM, control 27
  Maximum life span in days (90% survival): 39 days
[5]; 5 μM
  Increase in % of control (maximum life span): +37%
  Increase in % of control (median life span): +30%
[5]; 5 μM, control 30
  Maximum life span in days (90% survival): 41 days
[5]; 50 μM
  Increase in % of control (median life span): −3%
[5]; 50 μM, control 30
  Maximum life span in days (90% survival): 30 days

## COc1ccc2[nH]cc(CCNC(C)=O)c2c1 [Melatonin]
[2]
  inhibition of Aβ aggregation: potent inhibitor of Aβ aggregation
[6]
  half-life: 0.333 h
[3]; [8]
  indole levels in brain tissue: 450 + 30 pg/mg protein
[3]; [9]
  indole levels in brain tissue: 200 + 15 pg/mg protein
[3]; [10]
  indole levels in brain tissue: 73 + 6 pg/mg protein
[4]
  IC50: 1400 nM
[5]; 0.5 μM
  Increase in % of control (maximum life span): +30%
  Increase in % of control (median life span): +19%
[5]; 0.5 μM, control 27
  Maximum life span in days (90% survival): 35 days
[5]; 5 μM
  Increase in % of control (maximum life span): +40%
  Increase in % of control (median life span): +29%
[5]; 5 μM, control 30
  Maximum life span in days (90% survival): 42 days
[5]; 50 μM
  Increase in % of control (maximum life span): +3%
  Increase in % of control (median life span): +12%
[5]; 50 μM, control 30
  Maximum life span in days (90% survival): 31 days
